According to the NIST ThermoML archive (doi:10.1016/j.jct.2007.05.011):

Experiment: xn = mol fraction of the nth substance listed
Settings: 101 kPa, Liquid; for mass density: Vibrating tube method

NCCO.O=CO [2-hydroxyethylammonium formate] + CCO
Settings | mass density [kg/m3] | speed of sound [m/s]
305.65 K, x2 = 0 | – | 1690.8
305.65 K, x2 = 0.058 | – | 1704.7
305.65 K, x2 = 0.098 | – | 1685.5
305.65 K, x2 = 0.193 | – | 1642.7
305.65 K, x2 = 0.296 | – | 1598.7
305.65 K, x2 = 0.399 | – | 1545.2
305.65 K, x2 = 0.5 | – | 1485.4
305.65 K, x2 = 0.598 | – | 1421.8
305.65 K, x2 = 0.701 | – | 1353.1
305.65 K, x2 = 0.799 | – | 1281.3
305.65 K, x2 = 0.9 | – | 1206.1
305.65 K, x2 = 0.95 | – | 1165.7
308.15 K, x2 = 0 | 1169.39 | 1684.8
308.15 K, x2 = 0.058 | 1159.76 | 1699.5
308.15 K, x2 = 0.098 | 1147.72 | 1680.2
308.15 K, x2 = 0.193 | 1122.18 | 1637.3
308.15 K, x2 = 0.296 | 1096.28 | 1593
308.15 K, x2 = 0.399 | 1065.47 | 1539.2
308.15 K, x2 = 0.5 | 1030.18 | 1479.2
308.15 K, x2 = 0.598 | 991.781 | 1415.2
308.15 K, x2 = 0.701 | 948.127 | 1346.1
308.15 K, x2 = 0.799 | 898.707 | 1274
308.15 K, x2 = 0.9 | 842.788 | 1198.3
308.15 K, x2 = 0.95 | 811.783 | 1157.6
310.65 K, x2 = 0 | 1167.62 | 1678.7
310.65 K, x2 = 0.058 | 1158.11 | 1694.4
310.65 K, x2 = 0.098 | 1146.06 | 1674.9
310.65 K, x2 = 0.193 | 1120.49 | 1631.8
310.65 K, x2 = 0.296 | 1094.56 | 1587.4
310.65 K, x2 = 0.399 | 1063.71 | 1533.3
310.65 K, x2 = 0.5 | 1028.38 | 1473
310.65 K, x2 = 0.598 | 989.927 | 1408.7
310.65 K, x2 = 0.701 | 946.21 | 1339.3
310.65 K, x2 = 0.799 | 896.716 | 1266.7
310.65 K, x2 = 0.9 | 840.709 | 1190.5
310.65 K, x2 = 0.95 | 809.653 | 1149.5
313.15 K, x2 = 0 | 1165.84 | 1672.7
313.15 K, x2 = 0.058 | 1156.45 | 1689.2
313.15 K, x2 = 0.098 | 1144.4 | 1669.8
313.15 K, x2 = 0.193 | 1118.8 | 1626.3
313.15 K, x2 = 0.296 | 1092.84 | 1581.7
313.15 K, x2 = 0.399 | 1061.95 | 1527.4
313.15 K, x2 = 0.5 | 1026.57 | 1466.8
313.15 K, x2 = 0.598 | 988.066 | 1402.2
313.15 K, x2 = 0.701 | 944.29 | 1332.3
313.15 K, x2 = 0.799 | 894.718 | 1259.3
313.15 K, x2 = 0.9 | 838.621 | 1182.7
313.15 K, x2 = 0.95 | 807.511 | 1141.4
315.65 K, x2 = 0 | 1164.06 | 1666.7
315.65 K, x2 = 0.058 | 1154.81 | 1684.1
315.65 K, x2 = 0.098 | 1142.73 | 1664.5
315.65 K, x2 = 0.193 | 1117.11 | 1620.9
315.65 K, x2 = 0.296 | 1091.12 | 1576
315.65 K, x2 = 0.399 | 1060.19 | 1521.5
315.65 K, x2 = 0.5 | 1024.77 | 1460.5
315.65 K, x2 = 0.598 | 986.208 | 1395.6
315.65 K, x2 = 0.701 | 942.365 | 1325.5
315.65 K, x2 = 0.799 | 892.716 | 1252
315.65 K, x2 = 0.9 | 836.524 | 1174.9
315.65 K, x2 = 0.95 | 805.362 | 1133.4
318.15 K, x2 = 0 | 1162.29 | 1660.8
318.15 K, x2 = 0.058 | 1153.16 | 1679
318.15 K, x2 = 0.098 | 1141.07 | 1659.2
318.15 K, x2 = 0.193 | 1115.42 | 1615.5
318.15 K, x2 = 0.296 | 1089.4 | 1570.4
318.15 K, x2 = 0.399 | 1058.44 | 1515.6
318.15 K, x2 = 0.5 | 1022.96 | 1454.4
318.15 K, x2 = 0.598 | 984.346 | 1389.2
318.15 K, x2 = 0.701 | 940.437 | 1318.7
318.15 K, x2 = 0.799 | 890.71 | 1244.8
318.15 K, x2 = 0.9 | 834.423 | 1167.2
318.15 K, x2 = 0.95 | 803.205 | 1125.4
320.65 K, x2 = 0 | 1160.51 | 1654.8
320.65 K, x2 = 0.058 | 1151.51 | 1673.9
320.65 K, x2 = 0.098 | 1139.41 | 1654
320.65 K, x2 = 0.193 | 1113.73 | 1610.1
320.65 K, x2 = 0.296 | 1087.69 | 1564.8
320.65 K, x2 = 0.399 | 1056.68 | 1509.9
320.65 K, x2 = 0.5 | 1021.15 | 1448.2
320.65 K, x2 = 0.598 | 982.484 | 1382.8
320.65 K, x2 = 0.701 | 938.509 | 1311.8
320.65 K, x2 = 0.799 | 888.697 | 1237.6
320.65 K, x2 = 0.9 | 832.314 | 1159.5
320.65 K, x2 = 0.95 | 801.039 | 1117.5
323.15 K, x2 = 0 | 1158.73 | 1648.9
323.15 K, x2 = 0.058 | 1149.88 | 1668.8
323.15 K, x2 = 0.098 | 1137.78 | 1648.8
323.15 K, x2 = 0.193 | 1112.06 | 1604.7
323.15 K, x2 = 0.296 | 1085.98 | 1559.4
323.15 K, x2 = 0.399 | 1054.93 | 1504.2
323.15 K, x2 = 0.5 | 1019.35 | 1442.1
323.15 K, x2 = 0.598 | 980.632 | 1376.5
323.15 K, x2 = 0.701 | 936.584 | 1305.1
323.15 K, x2 = 0.799 | 886.69 | 1230.5
323.15 K, x2 = 0.9 | 830.212 | 1152
323.15 K, x2 = 0.95 | 798.879 | 1109.7
